Assay results from ChEMBL document CHEMBL5550206, “Identification of 6-Fluorine-Substituted Coumarin Analogues as POLRMT Inhibitors with High Potency and Safety for Treatment of Pancreatic Cancer” (J Med Chem, 2024).
Activity calls are given as the source filed them. The rule behind the calls is not given here.

Experiments:
[1] = molecular target: DNA-directed RNA polymerase, mitochondrial (Homo sapiens) (UniProt O00411); test: Inhibition of human POLRMT in human MIA PaCa-2 cells assessed as mitochondria coded ubiquinone oxidoreductase core subunit 1 (ND I) transcript level at 500 nM measured after 24 hrs by RT-qPCR analysis relative to control; set-up: scale not given: the % may be the effect or the level left
Chain of DNA-directed RNA polymerase, mitochondrial (Homo sapiens) (O00411 whole entry): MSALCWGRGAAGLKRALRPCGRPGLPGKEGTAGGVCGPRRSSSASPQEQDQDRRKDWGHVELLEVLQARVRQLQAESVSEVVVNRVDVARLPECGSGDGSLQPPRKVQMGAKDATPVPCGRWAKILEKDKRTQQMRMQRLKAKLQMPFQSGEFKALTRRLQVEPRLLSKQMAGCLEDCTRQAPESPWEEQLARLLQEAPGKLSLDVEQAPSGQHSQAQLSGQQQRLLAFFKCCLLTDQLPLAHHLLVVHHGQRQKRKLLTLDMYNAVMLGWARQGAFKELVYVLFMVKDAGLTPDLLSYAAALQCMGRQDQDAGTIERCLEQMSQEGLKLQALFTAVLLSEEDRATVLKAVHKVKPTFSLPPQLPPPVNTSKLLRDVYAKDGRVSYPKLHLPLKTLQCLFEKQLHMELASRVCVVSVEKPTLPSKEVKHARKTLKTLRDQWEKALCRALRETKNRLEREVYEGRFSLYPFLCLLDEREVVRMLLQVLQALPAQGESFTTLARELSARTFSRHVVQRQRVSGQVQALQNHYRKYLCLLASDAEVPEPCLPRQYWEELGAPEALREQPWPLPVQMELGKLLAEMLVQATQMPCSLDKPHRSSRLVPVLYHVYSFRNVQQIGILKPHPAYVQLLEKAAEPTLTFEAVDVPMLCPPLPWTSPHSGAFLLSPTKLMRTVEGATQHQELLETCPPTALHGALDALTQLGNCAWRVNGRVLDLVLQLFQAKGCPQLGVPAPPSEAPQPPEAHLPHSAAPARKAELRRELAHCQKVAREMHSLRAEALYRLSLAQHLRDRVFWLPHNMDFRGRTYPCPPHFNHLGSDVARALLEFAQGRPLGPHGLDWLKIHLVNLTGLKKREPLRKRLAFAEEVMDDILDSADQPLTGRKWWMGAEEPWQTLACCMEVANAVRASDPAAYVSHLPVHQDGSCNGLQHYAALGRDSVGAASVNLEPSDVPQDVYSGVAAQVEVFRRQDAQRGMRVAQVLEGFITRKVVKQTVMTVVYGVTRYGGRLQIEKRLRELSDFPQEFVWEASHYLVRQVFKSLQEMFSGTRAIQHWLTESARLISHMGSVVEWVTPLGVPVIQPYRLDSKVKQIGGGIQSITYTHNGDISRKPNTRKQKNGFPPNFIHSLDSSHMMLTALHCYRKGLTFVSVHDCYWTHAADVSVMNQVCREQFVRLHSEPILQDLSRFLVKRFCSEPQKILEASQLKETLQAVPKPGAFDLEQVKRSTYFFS

MIA PaCa-2 [2] = test: Antiproliferative activity against human MIA PaCa-2 cells assessed as cell viability measured after 168 hrs incubation by SRB assay; assay type: functional, cell-based; details: MIA PaCa-2, 168 h
MIA PaCa-2 [3] = test: Down-regulation of CytB gene expression in human MIA PaCa-2 cells at 0.1 to 1 uM measured after 12 hrs by RT-qPCR analysis; assay type: functional, cell-based; details: dose 0.1-1 µM
MIA PaCa-2 [4] = test: Inhibition of RNA pol II in human MIA PaCa-2 cells assessed as effect on 25S RNA level at 0.1 to 1 uM measured after 12 hrs by RT-qPCR analysis; assay type: cell-based; details: dose 0.1-1 µM
MIA PaCa-2 [5] = test: Inhibition of RNA pol III in human MIA PaCa-2 cells assessed as effect on 5S RNA level at 0.1 to 1 uM measured after 12 hrs by RT-qPCR analysis; assay type: cell-based; details: dose 0.1-1 µM
[6] = molecular target: DNA-directed RNA polymerase, mitochondrial (Homo sapiens) (UniProt O00411); test: Inhibition of human POLRMT in human MIA PaCa-2 cells assessed as inhibition of mitochondria coded ubiquinone oxidoreductase core subunit 1 (ND I) transcript level measured after 12 hrs by RT-qPCR analysis; details: dose 0.001-5 µM
MIA PaCa-2 [7] = test: Reduction of protein complexes of mitochondrial electron transport chain in human MIA PaCa-2 cells reduction in MTCO1 protein level by Western blot analysis; assay type: functional, cell-based; details: dose 0.001-5 µM
MIA PaCa-2 [8] = test: Effect on ATP5A protein complexes in human MIA PaCa-2 cells reduction in NDUFB8 protein level at 0.01 to 10 uM by Western blot analysis; assay type: functional, cell-based; details: dose 0.01-10 µM
MIA PaCa-2 [9] = test: Induction of cell arrest in human MIA PaCa-2 cells assessed as accumulation of cells at G2 phase at 25 nM measured after 96 hrs by PI staining based flow cytometry (reference value: 11.2%); assay type: functional
MIA PaCa-2 [10] = test: Induction of cell arrest in human MIA PaCa-2 cells assessed as accumulation of cells at G1 phase at 50 nM measured after 96 hrs by PI staining based flow cytometry (reference value: 64%); assay type: functional
MIA PaCa-2 [11] = test: Induction of cell arrest in human MIA PaCa-2 cells assessed as accumulation of cells at G1 phase at 100 nM measured after 96 hrs by PI staining based flow cytometry (reference value: 64%); assay type: functional
MIA PaCa-2 [12] = test: Induction of cell arrest in human MIA PaCa-2 cells assessed as accumulation of cells at S phase at 100 nM measured after 96 hrs by PI staining based flow cytometry (reference value: 16.8%); assay type: functional
MIA PaCa-2 [13] = test: Induction of cell arrest in human MIA PaCa-2 cells assessed as accumulation of cells at G2 phase at 200 nM measured after 96 hrs by PI staining based flow cytometry (reference value: 11.2%); assay type: functional
MIA PaCa-2 [14] = test: Induction of cell arrest in human MIA PaCa-2 cells assessed as early apoptotic cells at 25 nM measured after 4 days by Annexin V-FITC and propidium iodide (PI) staining based assay (reference value: 1.07%); assay type: functional; details: time 4 day
MIA PaCa-2 [15] = test: Induction of cell arrest in human MIA PaCa-2 cells assessed as necrotic cells at 50 nM measured after 4 days by Annexin V-FITC and propidium iodide (PI) staining based assay (reference value: 0.82%); assay type: functional; details: time 4 day
MIA PaCa-2 [16] = test: Induction of cell arrest in human MIA PaCa-2 cells assessed as viable cells at 100 nM measured after 4 days by Annexin V-FITC and propidium iodide (PI) staining based assay (reference value: 94.9%); assay type: functional; details: MIA PaCa-2, 96 h, time 4 day, read-out: Activity
MIA PaCa-2 [17] = test: Induction of cell arrest in human MIA PaCa-2 cells assessed as necrotic cells at 100 nM measured after 4 days by Annexin V-FITC and propidium iodide (PI) staining based assay (reference value: 0.82%); assay type: functional; details: time 4 day
MIA PaCa-2 [18] = test: Induction of cell arrest in human MIA PaCa-2 cells assessed as viable cells at 200 nM measured after 4 days by Annexin V-FITC and propidium iodide (PI) staining based assay (reference value: 94.9%); assay type: functional; details: MIA PaCa-2, 96 h, time 4 day, read-out: Activity
MIA PaCa-2 [19] = test: Induction of cell arrest in human MIA PaCa-2 cells assessed as early apoptotic cells at 500 nM measured after 4 days by Annexin V-FITC and propidium iodide (PI) staining based assay (reference value: 1.07%); assay type: functional; details: time 4 day
MIA PaCa-2 [20] = test: Induction of cell arrest in human MIA PaCa-2 cells assessed as necrotic cells at 500 nM measured after 4 days by Annexin V-FITC and propidium iodide (PI) staining based assay (reference value: 0.82%); assay type: functional; details: time 4 day
MIA PaCa-2 [21] = test: Reduction in maximal oxygen consumption rate (OCR) in human MIA PaCa-2 cells incubated for 168 hrs; assay type: functional, cell-based; details: dose 1-200 nM
MIA PaCa-2 [22] = test: Effect on extracellular acidification rate (ECAR) in human MIA PaCa-2 cells at 1 to 200 nM incubated for 168 hrs; assay type: functional, cell-based; details: dose 1-200 nM
MIA PaCa-2 [23] = test: Reduction in number of mitochondria in human MIA PaCa-2 cells measured after 96 hrs by Mito-Tracker Green and DAPI staining based assay; assay type: functional, cell-based; details: dose 10-1000 nM
[24] = molecular target: DNA-directed RNA polymerase, mitochondrial (Homo sapiens) (UniProt O00411); test: Thermal stabilization of human POLRMT in human MIA PaCa-2 cells assessed as melting temperature at 100 uM measured after 30 mins incubation by Wester blot analysis (reference value: 42 degreeC); assay type: cell-based
PANC-1 = test: Antiproliferative activity against human PANC-1 cells assessed as cell viability measured after 168 hrs incubation by SRB assay; assay type: functional, cell-based; details: PANC-1, 168 h
CAPAN-1 = test: Antiproliferative activity against human CAPAN-1 cells assessed as cell viability measured after 168 hrs incubation by SRB assay; assay type: functional, cell-based; details: CAPAN-1, 168 h
[25] = Antiproliferative activity against HUVEC cells assessed as cell viability measured after 168 hrs incubation by SRB assay; assay type: toxicity, cell-based; details: human
MIA PaCa-2 [26] = test: In vivo antitumor activity against human MIA PaCa-2 cells xenografted in BALB/c mouse assessed as reduction in tumor weight at 25 mg/kg, iv once daily for 25 consecutive day after 2 weeks of cells injection relative to control; assay type: functional; details: MIA PaCa-2, 600 h, time 25 day
MIA PaCa-2 [27] = test: Induction of apoptosis in human MIA PaCa-2 cells xenografted in BALB/c mouse at 25 to 100 mg/kg, iv once daily for 25 consecutive day after 2 weeks of cells injection by TUNEL staining based analysis; assay type: functional, organism-based; details: dose 25-100 mg/kg
[28] = Toxicity in BALB/c mouse xenografted with human MIA PaCa-2 cells assessed as pathological change in heart at 25 to 100 mg/kg, iv once daily for 25 consecutive day after 2 weeks of cells injection by H and E staining based optical microscopic analysis; assay type: organism-based; details: in vivo, 336 h, dose 25-100 mg/kg
[29] = Toxicity in BALB/c mouse xenografted with human MIA PaCa-2 cells assessed as pathological change in spleen at 25 to 100 mg/kg, iv once daily for 25 consecutive day after 2 weeks of cells injection by H and E staining based optical microscopic analysis; assay type: organism-based; details: in vivo, 336 h, dose 25-100 mg/kg

Q: What does the source list for `CCN(CC)C(=O)[C@@H](C)Oc1cc2oc(=O)cc(-c3ccccc3C)c2cc1F`?
A: Activity [1]: 9%; IC50 (MIA PaCa-2 [2]): 5 nM; Activity (MIA PaCa-2 [3]): Active; inhibition (MIA PaCa-2 [4]): inactive; inhibition (MIA PaCa-2 [5]): inactive; inhibition [6]: Dose-Dependent Effect; Activity (MIA PaCa-2 [7]): Dose-Dependent Effect; Activity (MIA PaCa-2 [8]): inactive; Activity (MIA PaCa-2 [9]): 12.6%; Activity (MIA PaCa-2 [10]): 67.1%; Activity (MIA PaCa-2 [11]): 63.6%; Activity (MIA PaCa-2 [12]): 16.7%; Activity (MIA PaCa-2 [13]): 13%; Activity (MIA PaCa-2 [14]): 1.4%; Activity (MIA PaCa-2 [15]): 0.76%; viability at 0.1 µM (MIA PaCa-2 [16]): 94.9%; Activity (MIA PaCa-2 [17]): 0.94%; viability at 0.2 µM (MIA PaCa-2 [18]): 94.2%; Activity (MIA PaCa-2 [19]): 0.77%; Activity (MIA PaCa-2 [20]): 1.28%; Activity (MIA PaCa-2 [21]): Dose-Dependent Effect; Activity (MIA PaCa-2 [22]): inactive; Activity (MIA PaCa-2 [23]): Dose-Dependent Effect; Tm [24]: 57 °C; IC50 (PANC-1): 198 nM; IC50 (CAPAN-1): 404 nM; IC50 at 168 h [25]: > 50000 nM; inhibition in vivo at 25 mg/kg (MIA PaCa-2 [26]): 45.2%; Activity (MIA PaCa-2 [27]): inactive; Activity [28]: Non-Toxic; Activity [29]: Non-Toxic
